Experimental data taken from the METLIN SMRT retention time set (Domingo-Almenara et al. 2019).

Test: gradient 5% acetonitrile 3 min, to 50% in 2 min, to 85% in 15 min, held 3 min, 100 µL/min
Settings: column: Zorbax Extend-C18 2.1 x 50 mm; eluents: water / acetonitrile, 0.1% formic acid
How it was run: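 Pure standards were run in mixtures of ~100 molecules by HPLC coupled to a quadrupole time-of-flight mass spectrometer. The column was a Zorbax Extend-C18 (2.1 × 50 mm, 1.8 μm) at 100 μL/min, with water and acetonitrile each containing 0.1% formic acid, in positive and negative ionization mode. Dead and dwell volumes were 40 μL and 900 μL. Retention time was taken from computationally picked adduct peaks, each manually inspected, with data collected over 3 months.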

SMILES	RP-LC retention time [s]
CCC(=O)Nc1ccc2c(c1)nc(CN1CCN(S(C)(=O)=O)CC1)n2CC	586
CCOc1ccc(/C=C/C(=O)Nc2nc(-c3ccc4c(c3)N(C)C(=O)CO4)cs2)cc1OC	985
O=C(c1ccc(OCC2CCCN(C(=O)C3CCCC3)C2)cc1)N1CCCC1 (stereo unspecified)	846
COc1ccc2[nH]cc(CCNC(=O)CCc3c(C)nc4c(c3C)c(=O)n(C)c(=O)n4C)c2c1	788
CCCn1c(=O)c(C)nc2cc(-c3noc(CN4C(=O)COc5ccc(Cl)cc54)n3)ccc21	1060
CN1CCN(C(=O)CCCN2C(=O)CCn3nc(-c4cn(C)c5ccccc45)cc32)CC1	571
Cc1ccn2c(NC(=O)c3ccc([N+](=O)[O-])cc3)c(-c3ccc(F)cc3)nc2c1	684
Cc1ccc(CNC(=O)C2CCN(c3cncnc3N3CCCCC3)CC2)o1	643
COCCOC1CN(C2CCN(C(=O)c3ccc(C)s3)CC2)C12CCCCC2 (stereo unspecified)	656
Cc1ccc(C(=O)N2CCC(C)CC2)cc1[N+](=O)[O-]	830
Cc1ccc(NC(=O)C2(C)CCCCC(=O)N2)cc1 (stereo unspecified)	696
Cc1ccc(-c2cc(C(N)=O)[nH]n2)c(C)c1	668
COc1ccc(CNC(=O)C2CCN(C(=O)c3nn(C)c4c3CN(C(=O)C(C)C)CC4)CC2)cc1	662
COc1cccc(CNC(=O)C2CCCN(S(=O)(=O)c3cc(-c4noc(C)n4)cs3)C2)c1 (stereo unspecified)	874
Cc1ccc(CNC(=O)C2(C)CN(S(C)(=O)=O)CC(=O)N2c2cccc(Cl)c2C)cc1 (stereo unspecified)	893
Cc1ccc(N2CC(C(=O)N(C)C)CC2=O)cc1 (stereo unspecified)	673
COc1ccc(C)cc1NC(=O)C1CCCN(S(=O)(=O)c2c[nH]c(C(=O)N3CCCC3)c2)C1 (stereo unspecified)	824
CC(C)C(=O)N1CCCCCNC(=O)[C@@H]2CCCC[C@@H]21	700
Cc1cccc(-c2nnc(-c3cc(S(=O)(=O)N(C)C)ccc3F)o2)c1	994
N#Cc1nc(-c2ccc(COc3ccc(Cl)cc3)o2)oc1NCCCn1ccnc1	627

SMILES	RP-LC retention time [s]
CCCn1cc2c3c(cccc31)CN(C(=O)Nc1cc(OC)c(OC)c(OC)c1)CC2	970
O=C(Nc1nccs1)c1ccc([N+](=O)[O-])cc1Cl	722
CCC(C)NC(=O)c1nn(-c2ccc(OC)cc2)c(OC)cc1=O (stereo unspecified)	692
CCc1noc(NC(C)=O)c1-c1ccc(C)c(S(=O)(=O)Nc2cccc(C#N)c2)c1	776
CCc1nnc(C2CN(C)CC23CCN(S(=O)(=O)c2ccc(C)c(Cl)c2)CC3)o1 (stereo unspecified)	675
Cc1[nH]c(C)c(S(=O)(=O)N2CCC(C(=O)Nc3ccc(F)cc3)CC2)c1C(=O)N1CCCC1	710
COc1cccc(CC(=O)N2CCC3(CC2)NC(=O)c2cc(F)ccc2N3C)c1	758
Cc1ccc(-c2noc(-c3nnn(Cc4nc(-c5cccc(Cl)c5)oc4C)c3C)n2)cc1	908
CC1=C(C(=O)N2CCOCC2)C(c2cc(Br)ccc2F)C2=C(CCCC2=O)N1 (stereo unspecified)	659
Cc1ccc(S(=O)(=O)c2cnc(N3CCC4(CC3)OCCO4)nc2N)cc1C	900
CCCC(=O)Nc1nc(-c2ccc3c(c2)N(C)C(=O)CO3)c(C)s1	856
CCc1ccc(C(C)NC(=O)c2nnc(-c3ccc(S(=O)(=O)N(C)C)cc3)o2)cc1 (stereo unspecified)	1010
COc1cccc2c1C(=O)c1c(O)c3c(c(O)c1C2=O)C[C@@](O)(/C(C)=N\O)C[C@@H]3OC1CC(N)C(O)C(C)O1 (stereo partly specified)	681
COc1cccc2c1C(=O)c1c(O)c3c(c(O)c1C2=O)C[C@@](O)(C(C)=O)C[C@@H]3OC1CC(N(C)C)C(O)C(C)O1 (stereo partly specified)	666
COc1ccc(CC(=O)N2CCC3(C2)C(=O)Nc2ccc(OC)cc23)c(Cl)c1 (stereo unspecified)	768
CCCCS(=O)(=O)c1cc2c(cc1NC(=O)c1ccc(Br)cc1)n(C)c(=O)n2C	1020
Cc1cccc(NS(=O)(=O)c2cc(-c3[nH]ncc3C(=O)N(C)C)oc2C)c1C	712
Cc1ccc(NS(=O)(=O)c2cc3n(c2)CCN(C(C)C)C3=O)cc1	777
O=C(c1ccsc1)N1CC(F)(F)C[C@H]1COc1ccc2c(c1)CCC2	1150
Cc1ccc(CNC(=O)CN2C(=O)C3CCCCN3c3ccc(S(=O)(=O)N4CCCC4)cc32)cc1 (stereo unspecified)	966

Second part, the compound after the results:

RP-LC retention time [s]	SMILES
637	O=C(Cn1cnc2nc(N3CCC(C(=O)NC4CC4)CC3)sc2c1=O)NCc1ccccc1
778	COc1ccc(-c2nc3cccnc3n2C2CCN(S(=O)(=O)c3ccccc3)C2)cc1 (stereo unspecified)
1210	Clc1ccc(Cc2nnc3sc(-c4ccc5ccccc5n4)nn23)cc1
629	COC(=O)c1ccccc1NC(=O)Cn1cccc(-c2nc(-c3ccccc3)no2)c1=O
714	COc1ccc(C(=O)N2CCC(n3c(-c4ccoc4)nc4cccnc43)C2)cc1F (stereo unspecified)
662	O=C(NCCn1nnc2cc(C(=O)N3CCCC3)ccc21)Nc1ccc(F)cc1
810	O=C(C1CCN(c2nnc(-c3ccccc3)o2)CC1)N1CCCCCC1
1010	Cc1ccccc1CNC(=O)c1c(C)sc2ccn(CC(C)C)c(=O)c12
1180	Cc1ccccc1OCCCC(=O)Nc1nc(-c2ccccc2)cs1
582	CCC(=O)N1CCc2sc(C(=O)N3CCN(c4ccccn4)CC3)cc2C1
939	CCC(=O)N1CCc2c([nH]c3ccccc23)C12C(=O)N(C)c1ccc(Br)cc12 (stereo unspecified)
727	Cc1ccccc1OCc1ccc(-c2nc(C#N)c(NCCCN(C)C)o2)o1
906	CCOc1ccc(NC(=O)CSc2ccc(S(=O)(=O)c3ccccc3)nn2)cc1
577	NS(=O)(=O)c1ccc(CCNC(=O)C2CCCN(c3nc4ccccc4[nH]3)C2)cc1 (stereo unspecified)
710	Cc1cc(C)nc(Nc2nc(-c3ccccc3)c(CC(=O)O)s2)n1
970	CCOC(=O)C1=CN(Cc2ccccc2)S(=O)(=O)N=C1C
716	Cc1cc(=O)n(CC(=O)Nc2ccc(Br)cc2)c(N2CCCCC2)n1
772	COC(=O)c1ncn2c1C(=O)N(Cc1ccccc1F)C(C)(C(=O)NCc1ccc(C)cc1)C2 (stereo unspecified)
654	O=C(N[C@@H]1CN(c2ncccn2)C[C@H]1CO)c1ccc2ccccc2n1
778	Cc1cc(Cl)ccc1NC(=O)Cn1nc(C(=O)N2CCCCC2)c2ccccc21
1060	CCCCN(C)C(=O)C1CCN(c2cc(Oc3ccc(CC)cc3)ncn2)CC1
1190	O=C(CSc1cc(N2CCN(c3ccccc3F)CC2)ncn1)NCCC1=CCCCC1
792	O=C(NC1CCCCC1)N1CC(F)(F)C[C@H]1CN1CCc2ccccc2C1

RP-LC retention time [s]	SMILES
701	O=C(O)C1CCN(S(=O)(=O)c2ccccc2[N+](=O)[O-])CC1
834	CC(C)Cn1cc(CCNC(=O)c2ccc(F)cc2F)c2cccnc21
918	CC(C)NC(=O)c1ccc(OCC2CCCN(C(=O)Cc3ccc(Cl)cc3)C2)cc1 (stereo unspecified)
1050	O=C(NC1CCCCCC1)c1nc(Cn2c(=O)oc3ccc(Cl)cc32)no1
1080	CCCn1c2ccccc2c2nnc(SCC(=O)Nc3nc(-c4ccccc4)cs3)nc21
560	Cc1nnc(CNC(=O)Cc2csc(Nc3ncccn3)n2)o1
570	Cc1cc(C)n(CC(=O)NCCc2c[nH]c3ccccc23)c(=O)n1
1000	O=C(CSc1nc2ccccc2o1)OCc1cc(-c2ccc3c(c2)OCCO3)on1
953	O=C(Nc1cccc(C(=O)N2CCN(c3cccc(Cl)c3)CC2)c1)C1=CSCCO1
1190	Cc1cc(C)nc(N2CCN(c3cc(C)nc4c(-c5ccc(F)cc5)cnn34)CC2)n1
598	CCc1nc2cccnc2n1CCN1CCN(C(=O)Nc2cc(C)ccc2C)CC1
570	O=C(C1CCN(c2cnc3nccnc3c2)CC1)N1CCN(c2ccccn2)CC1
804	COc1cc(NC(=O)Cn2c(=O)n(-c3ccccc3)c(=O)c3c2cc(C)n3C)cc(OC)c1
807	Cc1cc(N2C=NS(=O)(=O)c3cccnc32)ccc1F
909	COc1ccc(CC(=O)N2CCc3cc(-c4ccno4)ccc32)cc1
778	Cc1nnc(-c2ccc3ccn(CC(=O)Nc4ccccc4)c3c2)o1
634	O=C(NC1CCN(c2cc(-c3ccc(Cl)cc3)[nH]n2)CC1)c1ccc2nc[nH]c2c1
804	CCCn1cc(CCNS(=O)(=O)c2cccc(Cl)c2)c2cccnc21
863	COc1ccc(-c2nc3cnccn3c2Nc2ccccc2OC)cc1
841	O=C(NCC1CCCO1)c1cc(-c2cccs2)nc2ccccc12 (stereo unspecified)
1010	Fc1ccc(-c2nc(-c3cn(Cc4cccc(F)c4)nn3)no2)cc1
739	CN(C)c1nc(C(=O)N2CCN(c3ccc(F)cc3)CC2)nc2c1cnn2C
696	O=C(Nc1ccc(F)cc1)C1CCN(c2cc(N3CCCCC3)ncn2)CC1
